Laboratory results: patent US11370784B2 (MISSION THERAPEUTICS LIMITED, priority 2016, dated 2022)

These compounds were tested against USP30 (Homo sapiens (Human), UniProt Q70CQ3) (assay: USP30 biochemical IC50 assay). Details: fluorescence polarisation, TAMRA labelled peptide linked to ubiquitin as substrate; enzyme and compound incubated 30 min at room temp; read-out: IC50 range.
Experimental: Reactions were performed in duplicate in black 384 well plates (small volume, Greiner 784076) in a final reaction volume of 21 μl. Either 1 μl of 50% DMSO or diluted compound was added to the plate. USP30 was diluted in reaction buffer (40 mM Tris, pH 7.5, 0.005% Tween 20, 0.5 mg/ml BSA, 5 mM beta-mercaptoethanol) to the equivalent of 0.05 μl/well and 10 μl of diluted USP30 was added to the compound. Enzyme and compound were incubated for 30 min at room temp. Reactions were initiated by the addition of 50 nM of TAMRA labelled peptide linked to ubiquitin via an iso-peptide bond as fluorescence polarisation substrate. Reactions were read immediately after addition of substrate and following a 2 h incubation at room temperature. Readings were performed on a Pherastar Plus (BMG Labtech). λ Excitation 540 nm; λ Emission 590 nm.

Chain of USP30 (Q70CQ3 57-517): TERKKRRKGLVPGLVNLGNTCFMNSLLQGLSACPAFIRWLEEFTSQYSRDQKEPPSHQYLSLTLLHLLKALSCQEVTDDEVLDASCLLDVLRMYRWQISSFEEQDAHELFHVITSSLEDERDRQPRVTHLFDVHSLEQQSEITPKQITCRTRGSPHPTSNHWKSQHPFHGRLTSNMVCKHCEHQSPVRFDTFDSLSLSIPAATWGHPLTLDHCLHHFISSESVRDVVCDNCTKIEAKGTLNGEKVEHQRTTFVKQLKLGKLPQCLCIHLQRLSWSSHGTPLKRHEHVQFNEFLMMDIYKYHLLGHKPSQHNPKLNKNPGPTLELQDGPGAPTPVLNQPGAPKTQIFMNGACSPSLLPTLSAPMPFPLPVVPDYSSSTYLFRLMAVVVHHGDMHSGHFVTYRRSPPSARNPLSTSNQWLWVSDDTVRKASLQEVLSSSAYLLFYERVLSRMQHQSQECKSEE

Compound | IC50
N#CN1CCC[C@H](C(=O)Nc2ncc(-c3ccccc3)s2)C1 [Example 56, (S)-1-Cyano-N-(5-phenylthiazol-2-yl)piperidine-3-carboxamide] | 1000 to 10000 nM
N#CN1CCOC(C(=O)Nc2cc(-c3ccccc3)on2)C1 (stereo not shown) [Example 13, 4-Cyano-N-(5-phenylisoxazol-3-yl)morpholine-2-carboxamide] | 1000 to 10000 nM
CS(=O)(=O)N1CCN(C#N)CC1C(=O)Nc1ncc(-c2ccccc2)s1 (stereo not shown) [Example 71, 4-Cyano-1-(methylsulfonyl)-N-(5-phenylthiazol-2-yl)piperazine-2-carboxamide] | 1000 to 10000 nM
N#CN1CCCC(C(=O)Nc2cc(-c3ccccc3)ccn2)C1 (stereo not shown) [Example 40, 1-Cyano-N-(4-phenylpyridin-2-yl)piperidine-3-carboxamide] | 1000 to 10000 nM
N#CN1CCOC(C(=O)Nc2ccc(-c3ccccc3)cc2)C1 (stereo not shown) [Example 9, N-([1,1′-Biphenyl]-4-yl)-4-ycanomorpholine-2-carboxamide] | 1000 to 10000 nM
COc1cccc(-c2cc(NC(=O)C3CN(C#N)CCO3)on2)c1 (stereo not shown) [Example 10, 4-Cyano-N-(3-(3-methoxyphe-nyl)isoxazol-5-yl)morpholine-2-carboxamide] | 1000 to 10000 nM
N#Cc1cc(F)cc(-c2cc(NC(=O)[C@H]3CN(C#N)CCO3)ncn2)c1 [Example 24, (R)-4-Cyano-N-(6-(3-cyano-5-fluoro-phenyl)pyrimidin-4-yl)morpholine-2-carboxamide] | 100 to 1000 nM
N#CN1CCOC(C(=O)Nc2ncc(-c3ccc(F)cc3)s2)C1 (stereo not shown) [Example 2, 4-Cyano-N-(5-(4-fluorophenyl)thiazol-2-yl)morpholine-2-carboxamide] | 100 to 1000 nM
N#CN1CCOC(C(=O)Nc2ccc(-c3ccccc3)nc2)C1 (stereo not shown) [Example 17, 4-Cyano-N-(6-phenylpyridin-3-yl)morpholine-2-carboxamide] | 1000 to 10000 nM
CCCOc1cc(NC(=O)C2CCCN(C#N)C2)ccc1-c1ccn[nH]1 (stereo not shown) [Example 36, 1-Cyano-N-(3-propoxy-4-(1H-pyrazol-5-yl)phenyl)piperidine-3-carboxamide] | 100 to 1000 nM
N#CN1CCO[C@@H](C(=O)Nc2cc3cc(-c4cn[nH]c4)ccc3cn2)C1 [Example 31, (R)-N-(6-(1H-Pyrazol-4-yl)isoquinolin-3-yl)-4-cyanomorpholine-2-carboxamide] | 1000 to 10000 nM
N#Cc1ccc2cnc(NC(=O)[C@H]3CN(C#N)CCO3)cc2c1 [Example 65, (R)-4-Cyano-N-(6-cyanoisoquinolin-3-yl)morpholine-2-carboxamide] | 1000 to 10000 nM
N#CN1CCO[C@H](C(=O)Nc2cc(-c3ccccc3)ccn2)C1 [Example 35, (S)-4-Cyano-N-(4-phenylpyridin-2-yl)morpholine-2-carboxamide] | 1000 to 10000 nM
N#CN1CCC[C@](F)(C(=O)Nc2cc(-c3cccc(Cl)c3)on2)C1 [Example 74, (R)—N-(5-(3-Chlorophenyl)isoxazol-3-yl)-1-cyano-3-fluoropiperidine-3-carboxamide] | < 100 nM

Other lines, results leading:

IC50 | Compound
1000 to 10000 nM | N#CN1CCCC(F)(C(=O)Nc2nc3ccc(-c4cn[nH]c4)cc3s2)C1 (stereo not shown) [Example 50, N-(6-(1H-Pyrazol-4-yl)benzo[d]thiazol-2-yl)-1-cyano-3-fluoropiperidine-3-carboxamide]
100 to 1000 nM | N#CN1CCC[C@](F)(C(=O)Nc2ccc(-n3cccn3)cn2)C1 [Example 77, (R)—N-(5-(1H-Pyrazol-1-yl)pyridin-2-yl)-1-cyano-3-fluoropiperidine-3-carboxamide]
100 to 1000 nM | N#CN1CCC[C@](F)(C(=O)Nc2ccc(-c3ccn[nH]3)cn2)C1 [Example 72, (R)—N-(5-(1H-Pyrazol-5-yl)pyridin-2-yl)-1-cyano-3-fluoropiperidine-3-carboxamide]
100 to 1000 nM | N#CN1CCC[C@](F)(C(=O)Nc2cn(-c3cccc(C(F)(F)F)c3)cn2)C1 (stereo in doubt) [Example 80, 1-Cyano-3-fluoro-N-(1-(3-(trifluoromethyl)phenyl)-1H-imidazol-4-yl)piperidine-3-carboxamide]
< 100 nM | N#CN1CCC[C@](F)(C(=O)Nc2ncc(-c3cccc4cn[nH]c34)cn2)C1 [Example 92, (R)—N-(5-(1H-Indazol-7-yl)pyrimidin-2-yl)-1-cyano-3-fluoropiperidine-3-carboxamide]
< 100 nM | N#CN1CCC[C@](F)(C(=O)Nc2cnc(-c3cccc4[nH]ncc34)cn2)C1 [Example 87, (R)—N-(5-(1H-Indazol-4-yl)pyrazin-2-yl)-1-cyano-3-fluoropiperidine-3-carboxamide]
100 to 1000 nM | N#Cc1cccc(-n2cnc(NC(=O)[C@@]3(F)CCCN(C#N)C3)n2)c1 [Example 83, (R)-1-Cyano-N-(1-(3-cyanophenyl)-1H-1,2,4-triazol-3-yl)-3-fluoropiperidine-3-carboxamide]
1000 to 10000 nM | N#CN1CCCC(C(=O)Nc2ccc(-c3ccccc3)cn2)C1 (stereo not shown) [Example 39, 1-Cyano-N-(5-phenylpyridin-2-yl)piperidine-3-carboxamide]
< 100 nM | N#CN1CCC[C@](F)(C(=O)Nc2ccc(-c3nccc4cn[nH]c34)cn2)C1 [Example 89, (R)—N-(5-(1H-Pyrazolo[3,4-c]pyridin-7-yl)pyridin-2-yl)-1-cyano-3-fluoropiperidine-3-carboxamide]
1000 to 10000 nM | N#CN1CCOC(C(=O)Nc2ccc(-c3ccccc3)cn2)C1 (stereo not shown) [Example 12, 4-Cyano-N-(5-phenylpyridin-2-yl)morpholine-2-carboxamide]
100 to 1000 nM | N#Cc1cccc(-c2ccnc(NC(=O)[C@@]3(F)CCCN(C#N)C3)c2)c1 [Example 52, (R)-1-Cyano-N-(4-(3-cyanophenyl)pyridin-2-yl)-3-fluoropiperidine-3-carboxamide]
< 100 nM | N#CN1CCC[C@](F)(C(=O)Nc2ccc(-c3cccc4cn[nH]c34)nn2)C1 [Example 88, (R)—N-(6-(1H-indazol-7-yl)pyridazin-3-yl)-1-cyano-3-fluoropiperidine-3-carboxamide]
1000 to 10000 nM | N#Cc1cccc(-c2ccnc(NC(=O)C3(F)CCCN(C#N)C3)c2)c1 (racemic) [Example 47, 1-Cyano-N-(4-(3-cyanophenyl)pyridin-2-yl)-3-fluoropiperidine-3-carboxamide]
< 100 nM | N#CN1CCC[C@](F)(C(=O)Nc2cc(-c3cccc(Cl)c3)no2)C1 [Example 76, (R)—N-(3-(3-Chlorophenyl)isoxazol-5-yl)-1-cyano-3-fluoropiperidine-3-carboxamide]
